The values below come from US11427541B2, “Salt forms of a complement component C5A receptor” (CHEMOCENTRYX, INC., priority 2019, dated 2022).

Structures can show the parent of a compound that is named as a salt.

The nature of series [1]: in vivo rat PK study, aqueous liquid suspension with 0.5% w/v Hydroxypropyl Cellulose and 0.5% w/v Poloxamer F-68 (Example 8). The note with it: oral 10 mg/kg of Compound 1, 5 mL/kg. As to the method:
An in vivo rat PK study was conducted to compare the PK profile and bioavailability of the free base crystalline form of Compound 1 against various salt forms of Compound 1 in an aqueous liquid suspension formulation, which contained 0.5% w/v Hydroxypropyl Cellulose (Klucel GF grade) and 0.5% w/v Poloxamer F-68 (BASF Kolliphor P188). Each animal was orally administrated 10 mg/kg of Compound 1 at 5 mL/kg dosing volume (a dosing concentration of 2 mg/mL).

A short description of series [2]: stability of the crystals on storage and heating (HPLC, LCMS, NMR, XRPD). The series is classed as physicochemical.
Test in series [3]: as above
The series is classed as physicochemical. The note with it: for decomposition on storage (HPLC, LCMS and NMR analysis): 40° C. and 75% relative humidity for 45 days; for physical form by XRPD before and after the stability tests: both samples of the stability tests. As to the method: The stability of the collected crystals were tested by storing the crystals at 40° C. and 75% relative humidity for 45 days.

Series [4] is described as follows: hygroscopicity and physical stability by dynamic vapor sorption (DVS). The series is classed as physicochemical. The note with it: for DVS weight change from 5% to 95% relative humidity (RH): 5% to 95% RH; for DVS weight change from about 0% RH to about 75% relative humidity: about 0% to about 75% RH; for change in XRPD before and after the DVS measurement: data not shown; for DVS weight change from about 0% RH to about 55% relative humidity: about 0% to about 55% RH. As to the method: To evaluate the hygroscopicity and physical stability of the collected crystals under different humidity, dynamic vapor sorption (DVS) data was collected at 25° C. after the sample was pre-equilibrated at 0% RH to remove unbounded water. DVS was measured using a VTI SGA-100 Vapor Sorption Analyzer. Sorption and desorption data was collected over a range from 5% to 95% RH at 10% RH increments under a nitrogen purge. The equilibrium criterion used for analysis was less than 0.0100% weight change in 5 minutes with a maximum equilibrium time of 3 hours. [table]

Series [5] can be described thus: in vivo rat PK study, aqueous liquid suspension with 1% HPMC (Example 9). The note with it: oral 10 mg/kg of Compound 1, 5 mL/kg, suspension in 1% HPMC. As to the method: An in vivo rat PK study was conducted to compare the PK profile and bioavailability of the free base crystalline form of Compound 1 against various salt forms of Compound 1 in an aqueous liquid suspension formulation, which contained 1% HPMC. Each animal was orally administrated 10 mg/kg of Compound 1 at 5 mL/kg dosing volume (a dosing concentration of 2 mg/mL).

Where [6] appears, read: in vivo, po, 10 mg/kg, suspension in 0.5% HPC / 0.5% Poloxamer F-68.
Setting [7] is: in vivo, po, 10 mg/kg, suspension in 0.5% HPC / 0.5% Poloxamer F-68, read-out: AUC0-t.
The mark [8] stands for this setting: in vivo, po, 10 mg/kg, suspension in 0.5% HPC / 0.5% Poloxamer F-68, read-out: Cmax.
The mark [9] stands for this setting: 55° C. in a vacuum oven for 24 h.
[10] abbreviates: 75° C. for 1 week (open to air).
Setting [11] is: in vivo, po, 10 mg/kg, read-out: AUC0-t.
[12] abbreviates: in vivo, po, 10 mg/kg, read-out: Cmax.
The mark [13] stands for this setting: suspension in 0.5% HPC / 0.5% Poloxamer F-68.
Setting [14] is: 25° C., listed as Napsylate Salt of Compound 1 (Form I).
Setting [15] is: listed as Crystalline Napsylate.
The mark [16] stands for this setting: listed as Crystalline Edisylate.
Setting [17] is: listed as Crystalline Camsylate.
Setting [18] is: 25° C., listed as Napadisylate Salt of Compound 1 (Form I).
Setting [19] is: listed as Crystalline Napadisylate.

What is called AUC(0-inf) is the area under the concentration-time curve extrapolated to infinity. The low end stands for less exposure, the high end for more exposure. The term Cmax denotes the maximum level reached in the sampled fluid or tissue. Consider `Cc1ccc(NC(=O)[C@H]2CCCN(C(=O)c3c(C)cccc3F)[C@H]2c2ccc(NC3CCCC3)cc2)cc1C(F)(F)F.O=S(=O)(O)c1ccccc1` [Besylate Salt (Form I), N-cyclopentyl-4-((2R,3S)-1-(2-fluoro-6-methylbenzoyl)-3-((4-methyl-3-(trifluoromethyl)phenyl)-carbamoyl)piperidin-2-yl)benzenaminium benzenesulfonate], for which the AUC(0-inf) in series [1] (setting [6]) was found to be 2600 ng·h/mL; in series [5] (in vivo, po, 10 mg/kg), 2220 ng·h/mL. In addition, the values for the AUC0-t in series [1] (setting [7]) and in series [5] (setting [11]) were 2510 ng·h/mL and 2170 ng·h/mL, respectively. Further, the Cmax in series [1] (setting [8]) was determined as 493 ng/mL; in series [5] (setting [12]), 390 ng/mL. In addition, the “decomposition on heating (HPLC, LCMS and NMR analysis)” value (shortened to “decomposition on heating”) in series [2] (setting [9]) and in series [2] (setting [10]) was “did not result in any appreciable decomposition” each time. The “decomposition on storage (HPLC, LCMS and NMR analysis)” value (shortened to “decomposition on storage”) in series [3] is recorded as “did not result in any appreciable decomposition”. In series [3], the “physical form by XRPD before and after the stability tests” value (“physical form” below) was “remained the same”. Also, in series [4] (25° C.), the “DVS weight change from 5% to 95% relative humidity (RH)” value is 0.73%. The “DVS weight change from about 0% RH to about 75% relative humidity” value in series [4] (25° C.) was “about 0.5%”. Further, in series [4], the “change in XRPD before and after the DVS measurement” value (shortened to “change … after the DVS measurement”) is “No change in XRPD”.

In series [1] (setting [13]), `Cc1ccc(NC(=O)[C@H]2CCCN(C(=O)c3c(C)cccc3F)[C@H]2c2ccc(NC3CCCC3)cc2)cc1C(F)(F)F` [Napsylate Salt (Form I), N-cyclopentyl-4-((2R,3S)-1-(2-fluoro-6-methylbenzoyl)-3-((4-methyl-3-(trifluoromethyl)phenyl)-carbamoyl)piperidin-2-yl)benzenaminium naphthalene-2-sulfonate] showed an AUC0-t of 4876 ng·h/mL, an AUCinf of 5057 ng·h/mL and a Cmax of 778 ng/mL. Besides, in series [2] (setting [9]), the “decomposition on heating” value is reported as “did not result in any appreciable decomposition”. Further, in series [2] (setting [10]), the “decomposition on heating” value is recorded as “did not result in any appreciable decomposition”. For the same molecule, in series [3], the “decomposition on storage” value is recorded as “did not result in any appreciable decomposition”; the “physical form” value is recorded as “remained the same”. In series [4] (setting [14]), the “DVS weight change from 5% to 95% relative humidity (RH)” value came out at 0.65% and the “DVS weight change from about 0% RH to about 55% relative humidity” value is on record as “about 0.2%”. Further, the “change … after the DVS measurement” value in series [4] was “No change in XRPD”. In addition, in series [5] (setting [15]), the AUC0-t came to 4277 ng·h/mL, the AUCinf amounted to 4589 ng·h/mL and the Cmax worked out at 601 ng/mL.

For the molecule `Cc1ccc(NC(=O)[C@H]2CCCN(C(=O)c3c(C)cccc3F)[C@H]2c2ccc(NC3CCCC3)cc2)cc1C(F)(F)F` [Edisylate Salt (Form I), N-cyclopentyl-4-((2R,3S)-1-(2-fluoro-6-methylbenzoyl)-3-((4-methyl-3-(trifluoromethyl)phenyl)carbamoyl)piperidin-2-yl)benzenaminium ethane-1,2-disulfonate], in series [1] (setting [13]), the AUC0-t worked out at 2839 ng·h/mL, the AUCinf was found to be 3197 ng·h/mL and the Cmax is recorded as 435 ng/mL. Besides, in series [5] (setting [16]), the AUC0-t turned out to be 2126 ng·h/mL, the AUCinf amounted to 2162 ng·h/mL and the peak concentration (Cmax) is 525 ng/mL.

Regarding `Cc1ccc(NC(=O)[C@H]2CCCN(C(=O)c3c(C)cccc3F)[C@H]2c2ccc(NC3CCCC3)cc2)cc1C(F)(F)F.Cc1ccc(S(=O)(=O)O)cc1` [Tosylate Salt (Form I), N-cyclopentyl-4-((2R,3S)-1-(2-fluoro-6-methylbenzoyl)-3-((4-methyl-3-(trifluoromethyl)phenyl)-carbamoyl)piperidin-2-yl)benzenaminium 4-methylbenzenesulfonate], the AUC(0-inf) was determined as 4150 ng·h/mL in series [1] (setting [6]) and 3370 ng·h/mL in series [5] (in vivo, po, 10 mg/kg). Also, the AUC0-t is 4040 ng·h/mL in series [1] (setting [7]) and 3310 ng·h/mL in series [5] (setting [11]). In addition, the figures for the Cmax in series [1] (setting [8]) and in series [5] (setting [12]) were 591 ng/mL and 649 ng/mL, respectively. Besides, the “decomposition on heating” value in series [2] (setting [9]) and in series [2] (setting [10]) was “did not result in any appreciable decomposition” in each case. The “decomposition on storage” value in series [3] is on record as “did not result in any appreciable decomposition”. Also, the “physical form” value in series [3] is on record as “remained the same”. Besides, the “DVS weight change from 5% to 95% relative humidity (RH)” value in series [4] (25° C.) is 0.83%. Moreover, the “DVS weight change from about 0% RH to about 75% relative humidity” value in series [4] (25° C.) is reported as “about 0.58%”. In series [4], the “change … after the DVS measurement” value was “No change in XRPD”.

Turning to `Cc1ccc(NC(=O)[C@H]2CCCN(C(=O)c3c(C)cccc3F)[C@H]2c2ccc(NC3CCCC3)cc2)cc1C(F)(F)F` [Crystalline Free Base, (2R,3S)-2-(4-(cyclopentylamino)phenyl)-1-(2-fluoro-6-methylbenzoyl)-N-(4-methyl-3-(trifluoromethyl)phenyl)piperidine-3-carboxamide], in series [5], the AUC0-t came out at 1361 ng·h/mL, the AUCinf was 1377 ng·h/mL and the Cmax was found to be 168 ng/mL.

In series [1] (setting [13]), `Cc1ccc(NC(=O)[C@H]2CCCN(C(=O)c3c(C)cccc3F)[C@H]2c2ccc(NC3CCCC3)cc2)cc1C(F)(F)F` [Camsylate Salt (Form I), N-cyclopentyl-4-((2R,3S)-1-(2-fluoro-6-methylbenzoyl)-3-((4-methyl-3-(trifluoromethyl)phenyl)-carbamoyl)piperidin-2-yl)benzenaminium (1S)-(+)-10-camphorsulfonate] registered an AUC0-t of 3870 ng·h/mL, an AUCinf of 3922 ng·h/mL and a Cmax of 738 ng/mL. Moreover, in series [2] (setting [9]), the “decomposition on heating” value is recorded as “did not result in any appreciable decomposition”. In series [2] (setting [10]), the “decomposition on heating” value is “did not result in any appreciable decomposition”. In series [3], the “decomposition on storage” value is on record as “did not result in any appreciable decomposition”; the “physical form” value is on record as “remained the same”. In addition, the “DVS weight change from 5% to 95% relative humidity (RH)” value in series [4] (25° C., listed as Camsylate Salt of Compound 1 (Form I)) was determined as 0.96%. Further, the “DVS weight change from about 0% RH to about 65% relative humidity” value in series [4] (25° C., about 0% to about 65% RH) is listed as “about 0.35%”. Also, the “change … after the DVS measurement” value in series [4] was “No change in XRPD”. In series [5] (setting [17]), this molecule gave an AUC0-t of 2877 ng·h/mL, an AUCinf of 3005 ng·h/mL and a Cmax of 553 ng/mL.

In series [1] (setting [13]), `Cc1ccc(NC(=O)[C@H]2CCCN(C(=O)c3c(C)cccc3F)[C@H]2c2ccc(NC3CCCC3)cc2)cc1C(F)(F)F` [Napadisylate Salt (Form I), N-cyclopentyl-4-((2R,3S)-1-(2-fluoro-6-methylbenzoyl)-3-((4-methyl-3-(trifluoromethyl)phenyl)-carbamoyl)piperidin-2-yl)benzenaminium naphthalene-1,5-disulfonate] registered an AUC0-t of 3417 ng·h/mL, an AUCinf of 3478 ng·h/mL and a Cmax of 718 ng/mL. The “decomposition on heating” value in series [2] (setting [9]) is “did not result in any appreciable decomposition”. The “decomposition on heating” value in series [2] (setting [10]) was “did not result in any appreciable decomposition”. In series [3], the “decomposition on storage” value is listed as “did not result in any appreciable decomposition”; the “physical form” value is “remained the same”. In series [4] (setting [18]), the “DVS weight change from 5% to 95% relative humidity (RH)” value is 1.42% and the “DVS weight change from about 0% RH to about 55% relative humidity” value was “about 0.6%”. In addition, in series [4], the “change … after the DVS measurement” value is reported as “No change in XRPD”. In series [5] (setting [19]), this molecule came in with an AUC0-t of 5856 ng·h/mL, an AUCinf of 7743 ng·h/mL and a Cmax of 753 ng/mL.
